One test addresses Full length human TBK1 (Homo sapiens (Human), UniProt Q9UHD2). Kind of test: Inhibition of TBK1 Enzyme (Example A). As to conditions: -log(IC50), IC50 molar; 3 nM TBK1, 25 μM ATP, 60 min RT. The class given is biochemical. The gist of the method: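 Full-length N-His human TBK1 from Sf9 baculovirus was tested with 11-point 2.5-fold dilutions (1% DMSO) in Hepes pH 7.4, MgCl2, EDTA, Brij, DTT. After 60 min RT and EDTA quench, microfluidic conversion was fitted and reported as pIC50.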
Chain of Full length human TBK1 (Q9UHD2 whole entry): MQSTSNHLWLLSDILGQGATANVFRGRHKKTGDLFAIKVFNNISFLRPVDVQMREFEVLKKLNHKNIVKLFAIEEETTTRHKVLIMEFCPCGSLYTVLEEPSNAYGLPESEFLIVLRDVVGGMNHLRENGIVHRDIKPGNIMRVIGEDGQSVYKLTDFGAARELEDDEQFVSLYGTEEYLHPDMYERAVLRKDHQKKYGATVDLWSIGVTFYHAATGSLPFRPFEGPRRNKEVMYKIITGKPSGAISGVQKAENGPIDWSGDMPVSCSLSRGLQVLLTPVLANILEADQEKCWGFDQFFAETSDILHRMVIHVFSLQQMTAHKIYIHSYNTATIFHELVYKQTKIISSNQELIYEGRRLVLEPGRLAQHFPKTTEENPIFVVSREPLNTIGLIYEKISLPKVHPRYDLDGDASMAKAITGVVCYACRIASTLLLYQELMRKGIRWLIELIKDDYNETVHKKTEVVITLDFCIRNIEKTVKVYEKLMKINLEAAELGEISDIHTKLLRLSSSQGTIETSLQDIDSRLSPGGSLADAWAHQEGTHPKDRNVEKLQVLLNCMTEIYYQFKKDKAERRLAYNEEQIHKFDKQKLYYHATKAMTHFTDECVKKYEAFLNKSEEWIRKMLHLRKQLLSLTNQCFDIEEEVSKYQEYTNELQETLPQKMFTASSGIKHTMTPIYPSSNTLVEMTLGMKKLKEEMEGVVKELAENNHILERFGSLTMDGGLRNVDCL
On to `C[C@H](Nc1cc(-c2cnc(NC(=O)C3CC3)cn2)ccc1C#N)C(=O)N(C)C` [Example 1, (S)-N-(5-(4-cyano-3-((1-(dimethylamino)-1-oxopropan-2-yl)amino)phenyl)pyrazin-2-yl)cyclopropanecarboxamide], for which the “TBK1 Inhibition (pIC50)” value is listed as 8.1.
The same measure, in the same setting: then `C[C@H](Nc1cc(-c2cnc(NC(=O)C3CC3)cn2)cnc1C#N)C(=O)NCC(F)F` [Example 114, (S)-N-(5-(6-cyano-5-((1-((2,2-difluoroethyl)amino)-1-oxopropan-2-yl)amino)pyridin-3-yl)pyrazin-2-yl)cyclopropanecarboxamide], with 7.7; and `CN(CC(F)(F)F)C(=O)CNc1cc(-c2cnc(NC(=O)C3CC3)cn2)cnc1C#N` [Example 40, N-(5-(6-cyano-5-((2-(methyl(2,2,2-trifluoroethyl)amino)-2-oxoethyl)amino)pyridin-3-yl)pyrazin-2-yl)cyclopropanecarboxamide], with 7.5; and `N#Cc1ncc(-c2cnc(NC(=O)C3CC3)cn2)cc1NCC(=O)N1CCCC1CF` (stereo not shown) [Example 143, N-(5-(6-cyano-5-((2-(2-(fluoromethyl)pyrrolidin-1-yl)-2-oxoethyl)amino)pyridin-3-yl)pyrazin-2-yl)cyclopropanecarboxamide], with 7.0.
The same measure, in the same setting: then `C[C@H](Nc1cc(-c2cnc(NC(=O)C3CC3)cn2)cnc1C#N)C(=O)N(CC#N)CCO` [Example 93, (S)-N-(5-(6-cyano-5-((1-((cyanomethyl)(2-hydroxyethyl)amino)-1-oxopropan-2-yl)amino)pyridin-3-yl)pyrazin-2-yl)cyclopropanecarboxamide], with 6.8; and `C[C@H](O)[C@H](Nc1cc(-c2cnc(NC(=O)C3CC3)cn2)cnc1C#N)C(=O)N(C)C` [Example 39, N-(5-(6-cyano-5-(((2S,3S)-1-(dimethylamino)-3-hydroxy-1-oxobutan-2-yl)amino)pyridin-3-yl)pyrazin-2-yl)cyclopropanecarboxamide], with 7.0; and `C[C@H](Nc1cc(-c2cnc(NC(=O)C3CC3)cn2)ccc1C#N)C(=O)N(C)CCO` [Example 19, (S)-N-(5-(4-cyano-3-((1-((2-hydroxyethyl)(methyl)amino)-1-oxopropan-2-yl)amino)phenyl)pyrazin-2-yl)cyclopropanecarboxamide], with 7.7.
In the case of `N#Cc1ccc(-c2cnc(NC(=O)C3CC3)cn2)cc1NCC(=O)N1CCC1` [Example 21, N-(5-(3-((2-(azetidin-1-yl)-2-oxoethyl)amino)-4-cyanophenyl)pyrazin-2-yl)cyclopropanecarboxamide], the “TBK1 Inhibition (pIC50)” value amounted to 6.6.
On the same count and under the same terms, then `COCCN(C)C(=O)[C@H](C)Nc1cc(-c2cnc(NC(=O)C3CC3)cn2)ccc1C#N` [Example 17, (S)-N-(5-(4-cyano-3-((1-((2-methoxyethyl)(methyl)amino)-1-oxopropan-2-yl)amino)phenyl)pyrazin-2-yl)cyclopropanecarboxamide], with 7.1; and `C[C@H](Nc1cc(-c2cnc(NC(=O)C3CC3)cn2)cnc1C#N)C(=O)N(C)CC1CC1` [Example 73, (S)-N-(5-(6-cyano-5-((1-((cyclopropylmethyl)(methyl)amino)-1-oxopropan-2-yl)amino)pyridin-3-yl)pyrazin-2-yl)cyclopropanecarboxamide], with 7.0.
On to `CCC(Nc1cc(-c2cnc(NC(=O)C3CC3)cn2)ccc1C#N)C(=O)N(C)CCO` (stereo not shown) [Example 29, N-(5-(4-cyano-3-((1-((2-hydroxyethyl)(methyl)amino)-1-oxobutan-2-yl)amino)phenyl)pyrazin-2-yl)cyclopropanecarboxamide], for which the “TBK1 Inhibition (pIC50)” value turned out to be 7.8.
The same measure, in the same setting: the result for `C[C@@H](O)[C@@H](Nc1cc(-c2cnc(NC(=O)C3CC3)cn2)cnc1C#N)C(=O)N(C)C` [Example 37, N-(5-(6-cyano-5-(((2R,3R)-1-(dimethylamino)-3-hydroxy-1-oxobutan-2-yl)amino)pyridin-3-yl)pyrazin-2-yl)cyclopropanecarboxamide] reads 6.9.

For a further test, the system named is C57/BL6 mice. Kind of test: Inhibition of ConA Induced Hepatitis (Example B). As to conditions: Mus musculus; oral, 1 hr before ConA 15 mg/kg i.v.; plasma ALT post 8-24 hrs; read-out: ED50 (amount of test compound that reduces ConA induced increase in plasma ALT level by 50%). The class given is in vivo. As for the experimental part:
Orally administer compound into normal C57/BL6 mice at several doses. After 1 hr, inject i.v. with ConA 15 mg/kg, (N=5). Post 8-24 hrs, collect plasma and liver. Measure plasma ALT enzyme level. An ED50 is determined as the amount of test compound that reduces ConA induced increase in plasma ALT level by 50%.
For the compound `C[C@H](Nc1cc(-c2cnc(NC(=O)C3CC3)cn2)ccc1C#N)C(=O)N(C)C` [Example 1, (S)-N-(5-(4-cyano-3-((1-(dimethylamino)-1-oxopropan-2-yl)amino)phenyl)pyrazin-2-yl)cyclopropanecarboxamide], the median effective dose (ED50) was 5 mg/kg.

Broadly, the ED50 is the midpoint of the dose-response relation.
